Data set [1] concerns the target Integrin alpha-V/beta-3 (Homo sapiens) (UniProt P05106+P06756). Kind of data set: In vitro binding affinity against integrin Alpha-v Beta3 receptor in SPA assay. The format is protein-complex assay.
A short description of data set [2]: Partition coefficient (logP). The data set is classed as physicochemical. To be noted: octanol/water.
The nature of data set [3]: Human plasma binding affinity was determined. To be noted: read-out: PB (converted). The data set is classed as ADME, cell-free.
A short description of data set [4]: Clearance value in rat. The data set is classed as ADME, organism-based. To be noted: in vivo.
Data set [5] is described as follows: Bioavailability in rhesus monkey. The format is ADME, organism-based. The settings on record: in vivo.
Data set [6] in a line: Clearance value in rhesus monkey. The data set is classed as ADME, organism-based. The settings on record: cercopithecidae, in vivo.
The nature of data set [7]: Effect was measured in male rats on distal femoral metaphysis bone mineral density. The data set is classed as ADME. To be noted: rat.
A short description of data set [8]: Clearance value in dog. The settings on record: in vivo. The format is ADME, organism-based, Canis lupus familiaris.
Data set [9] is described as follows: Bioavailability in dog. The format is ADME, organism-based, Canis lupus familiaris. To be noted: in vivo.
A short description of data set [10]: Plasma clearance in dog. The data set is classed as ADME, organism-based, Canis lupus familiaris. To be noted: in vivo.
Data set [11] is described as follows: Half life in dog. The format is ADME, Canis lupus familiaris. To be noted: in vivo.
Data set [12] is described as follows: Bioavailability in rhesus Monkey. The format is ADME, organism-based, Macaca mulatta. To be noted: in vivo.
The nature of data set [13]: Bioavailability in rat. The format is ADME, organism-based. The settings on record: in vivo.
A short description of data set [14]: Plasma clearance in rat. To be noted: in vivo. The format is ADME, organism-based.
A short description of data set [15]: Plasma clearance in rhesus monkey. The format is ADME, organism-based. To be noted: cercopithecidae, in vivo.

What is called logP is a log measure of how a compound divides between an organic and an aqueous phase. One may read the clearance as the rate of elimination divided by the concentration. Usually bioavailability stands for dose-corrected exposure relative to a reference, in per cent. As usually defined, the half-life is the time needed for the level to fall by half in the phase considered.

Molecules are shown by their SMILES. Several values for one entry are separate records, joined by “and”; a condition that tells them apart may be missing. Identical values can stand only once.

With `COc1ccc([C@H](CC(=O)O)N2CCN(CCCc3ccc4c(n3)N[C@H](C)CC4)C2=O)cn1`, the SPAV3 in data set [1] is 0.11 nM. This compound registered a logP in [2] of 0.56. In addition, in data set [3], the fraction unbound was 0.08.

With `COc1ccc([C@H](CC(=O)O)N2CCN(CCCc3ccc4c(n3)NCCC4)C2=O)cn1`, the clearance in [4] worked out at 47 mL/min/kg; in [6], 9 mL/min/kg; in [8], 6.4 mL/min/kg. For the same compound, the bioavailability in [5] stood at 74%. Besides, the SPAV3 in [1] amounted to 0.08 nM. The DFMBMD in data set [7] is 133 mg/Ecm and 145 mg/Ecm and 157.2 mg/Ecm. In addition, in data set [3], the fraction unbound was 0.12.

As for `COc1ccc([C@H](CC(=O)O)N2CCN(CCCc3nc4c(cc3C)CCCN4)C2=O)cn1`, in [9], the bioavailability is 55%. This compound also yielded an SPAV3 in [1] of 0.13 nM. The compound further registered a clearance in [10] of 18 mL/min/kg. The compound also showed a half-life in data set [11] of 2.2 h. The logP in data set [2] turned out to be 0.62. In data set [3], the fraction unbound is 0.22.

Consider `COc1ccc([C@H](CC(=O)O)N2CCN(CCCc3ccc4c(n3)N[C@@H](C)CC4)C2=O)cn1`, for which the bioavailability came out at 75% in data set [12], 83% in data set [9] and 50% in data set [13]. The SPAV3 in [1] is 0.11 nM. The figures for the clearance in data set [10], in data set [14] and in data set [15] were 1.7 mL/min/kg, 41 mL/min/kg and 3.5 mL/min/kg, respectively. The same compound had a logP in [2] of 0.69. In data set [7], the DFMBMD is 137 mg/Ecm and 147.9 mg/Ecm and 161 mg/Ecm and 141.1 mg/Ecm and 156.6 mg/Ecm. For the same compound, in [3], the fraction unbound is 0.05.
